# Reference: ChEMBL document CHEMBL5724696, “Autophagy assay results for EUbOPEN Chemogenomics Library” (2024)
# Tests used:
# Assay type in all cases: functional, Homo sapiens
# [1] = tested on: TERT-RPE1; test: (§1) Here: values are normalized to the negative (DMSO; defined as 0% autophagy induction) and positive (250nM Torin1; mTOR inhibitor; defined as maximal inducer of autophagy = 100%) control compounds and represented as % of autophagy induction. […] The impact of autophagy induction on cells is complex and depends on the affected target. As such, the magnitude of a phenotype may not be equally mirrored in the %-value of autophagy induction and vice versa. The dynamics of the induction may indicate the mode of activation: e.g. activation via phosphorylation or a signaling cascade may occur fast, while activation via transcription factors may take considerably longer. […] Of note, treatment concentrations may be sub-optimal for specific compounds, leading to false negative annotations.; conditions: Culturing Media DMEM/F12 (1:1), 1 % Penicillin/Streptomycin, 10% Fetal bovin serum Add-On: No, Screening Media Control DMEM/F12 (1:1), Screening Media Samples DMEM/F12 (1:1)
# [2] = tested on: U2OS; test: as §1; conditions: Culturing Media DMEM, 1 % Penicillin/Streptomycin, 10% Fetal bovin serum Add-On: No, Screening Media Control DMEM, Screening Media Samples DMEM
# [3] = tested on: U2OS; test: as §1; conditions: Culturing Media DMEM, 1 % Penicillin/Streptomycin, 10% Fetal bovin serum Add-On: No, Screening Media Control DMEM, Screening Media Samples DMEM; remark: listed apart in the source
# [4] = Compound Concentration 0.5 uM, Timepoint 12 hours
# [5] = Compound Concentration 0.5 uM, Timepoint 24 hours
# [6] = Compound Concentration 0.5 uM, Timepoint 36 hours
# [7] = Compound Concentration 0.5 uM, Timepoint 60 hours
# [8] = Compound Concentration 2 uM, Timepoint 12 hours
# [9] = Compound Concentration 2 uM, Timepoint 24 hours
# [10] = Compound Concentration 2 uM, Timepoint 36 hours
# [11] = Compound Concentration 2 uM, Timepoint 60 hours
# [12] = Compound Concentration 10 uM, Timepoint 12 hours
# [13] = Compound Concentration 10 uM, Timepoint 24 hours
# [14] = Compound Concentration 10 uM, Timepoint 36 hours
# [15] = Compound Concentration 10 uM, Timepoint 60 hours
compound,measurement,setting,value
CNc1nc(NCc2ccc(NS(C)(=O)=O)cc2Cl)cc(-c2ccccn2)n1,autophagy induction,[1]; [4],-1.3719%
same,autophagy induction,[1]; [5],-4.63%
same,autophagy induction,[1]; [6],-8.2685%
same,autophagy induction,[1]; [7],-4.377%
same,autophagy induction,[1]; [8],1.95%
same,autophagy induction,[1]; [9],-3.372%
same,autophagy induction,[1]; [10],-5.053%
same,autophagy induction,[1]; [11],1.232%
same,autophagy induction,[1]; [12],14.7912%
same,autophagy induction,[1]; [13],21.0269%
same,autophagy induction,[1]; [14],30.7963%
same,autophagy induction,[1]; [15],56.217%
same,autophagy induction,[2]; [4],-4.8332%
same,autophagy induction,[2]; [5],-1.906%
same,autophagy induction,[2]; [6],-1.0253%
same,autophagy induction,[2]; [7],-0.2766%
same,autophagy induction,[2]; [8],-0.6465%
same,autophagy induction,[2]; [9],0.2341%
same,autophagy induction,[2]; [10],-0.0484%
same,autophagy induction,[2]; [11],0.9042%
same,autophagy induction,[2]; [12],-8.81%
same,autophagy induction,[2]; [13],-3.343%
same,autophagy induction,[2]; [14],-3.38%
same,autophagy induction,[2]; [15],-6.97%
same,autophagy induction,[3]; [4],14.6542%
same,autophagy induction,[3]; [5],1.484%
same,autophagy induction,[3]; [6],3.538%
same,autophagy induction,[3]; [7],8.159%
same,autophagy induction,[3]; [8],23.6541%
same,autophagy induction,[3]; [9],10.7985%
same,autophagy induction,[3]; [10],11.9727%
same,autophagy induction,[3]; [11],23.1222%
same,autophagy induction,[3]; [12],27.3974%
same,autophagy induction,[3]; [13],31.2749%
same,autophagy induction,[3]; [14],36.9575%
same,autophagy induction,[3]; [15],46.6456%
